Key:
BTK [1] = molecular target: T1, BTK (Homo sapiens, UniProt Q06187); experiment: BTK IC50 (EZ reader kinase assay); format: biochemical; design: purchased Carna; conditions: ATP 1 mM, BTK 2 nM, 90 minutes at room temperature
Experimental: Solutions of compounds (test or control) in DMSO were prepared at the desired concentrations, and serially diluted to 11 concentrations by 3-fold dilution in 384pp-plate using TECAN EVO200. 20 nL of stock were transferred to 384 plate using Echo550. DMSO was used as vehicle control.
Two separate solutions were prepared—an ATP solution containing MgCl2 (10 mM), Brij-35 (0.01%), DTT (2 mM), BSA (0.05%), EGTA (1 mM), HEPE (pH7.5) (50 mM), FLPeptide (6 uM) and ATP (4 mM); and a BTK solution containing MgCl2 (10 mM), Brij-35 (0.01%), DTT (2 mM), BSA (0.05%), EGTA (1 mM), HEPE (pH7.5) (50 mM) and BTK (2.67 nM). (BTK was obtained from Carna; FLPeptide2 was obtained from PerkinElmer and Ibrutinib was obtained from Selleck.) 5 uL of ATP solution were added to each well, followed by addition of 15 uL of BTK solution to initiate the reaction. (Note the final volume of each well was 20 uL containing MgCl2 (10 mM), Brij-35 (0.01%), DTT (2 mM), BSA (0.05%), EGTA (1 mM), HEPE (pH7.5) (50 mM), FLPeptide (1.5 uM), ATP (1 mM) and BTK (2 nM). The plates were incubated at room temperature for 90 minutes and then stopping buffer added (75 uL, containing 0.5 M EDTA) to terminate the reaction. Samples from each well were analyzed using EZ reader.
The % remaining activity was calculated using read conversion ratio (CR) according to the equation: […]
XLFit (equation 201) was used to calculate IC50's by floating both bottom and top.
BTK IC50 values are provided in Table 5, for the compounds described in Examples 1-13, wherein: • “A” denotes an IC50<1 nM; • “B” denotes an IC50 1-10 nM; and • “C” denotes an IC50>10 nM.

BTK [2] = molecular target: T1, BTK; experiment: Assay to determine BTK inactivation rate (active site probe ELISA, human whole blood); format: cell-based; design: tissue StemExpress; host or cells: human whole blood; conditions: 37° C., 5-60 minutes, read-out: BTK hWB (Kinact/Ki)
Experimental: This example employed a BTK active site probe-based assay using a biotinylated covalent inhibitor in human and mouse blood or mouse brain lysate.
Human whole blood was obtained from StemExpress (Stockton, CA) and kept at ambient temperature until the time of the experiment, which was approximately 24 hours after it had been collected. • 1. A 1× lysis buffer was prepared by using 10× lysis buffer (Cell Signaling Technology, #9083S, Danvers, MA), molecular biology grade water, 100× Halt Protease and Phosphatase Inhibitor Cocktail, (ThermoFisher, #78440, Waltham, MA), and BTK active site probe (final: 0.4 μM). This was prepared fresh each experimental day. • 2. Lysis buffer was added in the volume of 30 μL to all wells in a V-bottom plate (Greiner Bio-One, #651261, Monroe, NC) in preparation for timepoint collections. • 3. Compounds were reconstituted to stocks of 10 mM in 100% DMSO and were diluted in 2-fold serial dilutions to generate an 8-point curve in DMSO, with the last point being DMSO only. • 4. A working 10× dilution series was created using 1 μL of the prepared DMSO titration into […] 1×PBS in order to keep the DMSO constant (0.03% DMSO final). • 5. The whole blood was added in the volume of 225 μL per well in a new 96 w v-bottom plate. • 6. For compound treatment, 25 μL of the 10× dilution series in PBS was added to the 225 μL whole blood, followed by briefly pipetting up and down, twice. • 7. The plates were then covered with plastic lids and incubated at 37° C. for 5, 10, 15, 30, 60 minutes. • 8. At each timepoint, 30 μL of compound- or DMSO (vehicle)-treated blood is pulled from each column and added to preloaded collection plates that contained 30 μL of lysis buffer supplemented with BTK active site probe. Samples were then mixed briefly by pipetting up and down, twice. • 9. The plates with collected and lysed samples were shaken and covered with sealing film on a rotator for 60 minutes at room temperature. These samples were used fresh for detection via ELISA, and remaining sample was frozen at −80° C. if a repeat was necessary. Determining Amount of Unoccupied BTK Using ELISA • 1. All streptavidin pre-coated plates (R&D Systems, #CP004, Minneapolis, MN) were brought to room temperature while samples are lysing. • 2. Assay Buffer 1, 1×PBS+0.05% Tween 20+1% BSA was prepared, filtered, and stored at 4° C. when not in use. • 3. Using this Assay Buffer 1, assay buffer+1× protease/phosphatase inhibitor cocktail (PICS) was prepared in the amount needed for all samples. • 4. Assay Buffer+PICS in the volume of 90 μL/well was added to the ELISA plate for blood samples. • 5. Assay Buffer+PICs in the volume of 50 μL/well was added to the ELISA plate for brain samples. • 6. Lysed blood sample (10 μL) was added to the ELISA plate. • 7. Lysed brain sample (50 μL) was added to the ELISA plate. • 8. Samples were loaded into the ELISA plate for a total of 100 μL/well, in duplicate, and remained in the plate, sealed, overnight at 4° C. • 9. The following day, the plate was washed three times with 1× Wash Buffer (1×PBS+0.05% Tween 20) at 250 μL/well using a plate washer. • 10. The plate was inverted to expel all fluid each time and blotted on clean paper towels to remove remaining liquid. • 11. Assay Buffer 2 was prepared (1×PBS+0.05% Tween 20+0.5% BSA) and kept at 4° C. when not in use. • 12. The primary antibody α-BTK (clone D3H5, Cell Signaling Technology #8547S Danvers, MA) was diluted 1:500 in Assay Buffer 2. • 13. Diluted a-BTK antibody was added at 100 μL/well. • 14. The plate was covered with adhesive film and incubated for 90 minutes at room temperature. • 15. The plate was washed three times with 1× Wash Buffer at 250 μL/well using a plate washer. • 16. The plate was inverted to expel all fluid each time and blotted on clean paper towels to remove remaining liquid. • 17. The detection antibody (Jackson Immuno Research, #711-005-152) was diluted 1:2,500 with Assay Buffer 2. • 18. The diluted antibody was added at 100 μL/well. • 19. […]

T1 sequence (Q06187 whole entry): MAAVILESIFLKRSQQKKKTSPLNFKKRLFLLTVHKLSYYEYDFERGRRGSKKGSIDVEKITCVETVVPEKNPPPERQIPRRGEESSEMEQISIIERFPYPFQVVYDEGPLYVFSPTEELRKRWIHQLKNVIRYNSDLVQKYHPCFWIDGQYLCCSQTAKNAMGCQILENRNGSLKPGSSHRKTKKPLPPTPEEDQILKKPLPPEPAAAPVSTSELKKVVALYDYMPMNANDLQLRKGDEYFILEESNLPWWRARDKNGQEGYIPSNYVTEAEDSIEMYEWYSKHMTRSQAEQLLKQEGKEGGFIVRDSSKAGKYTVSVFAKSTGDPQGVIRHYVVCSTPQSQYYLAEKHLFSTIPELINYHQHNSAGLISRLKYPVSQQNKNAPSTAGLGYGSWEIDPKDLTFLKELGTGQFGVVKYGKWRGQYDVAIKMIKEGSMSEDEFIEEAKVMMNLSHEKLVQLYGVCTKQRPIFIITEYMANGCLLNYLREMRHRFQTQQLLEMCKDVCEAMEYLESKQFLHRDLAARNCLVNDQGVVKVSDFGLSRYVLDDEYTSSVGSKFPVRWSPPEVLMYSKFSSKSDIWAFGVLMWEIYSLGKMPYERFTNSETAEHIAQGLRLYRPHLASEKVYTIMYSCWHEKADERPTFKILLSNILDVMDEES

Row | SMILES | IC50 (BTK [1]) | kinact/KI (BTK [2])
1 | CC#CC(=O)NC1CCC=C(c2c(F)cc(C(N)=O)c3[nH]c(C)c(Cl)c23)C1 (racemic) [1A(rac), 4-(5-(but-2-ynamido)cyclohex-1-en-1-yl)-3-chloro-5-fluoro-2-methyl-1H-indole-7-carboxamide] | 1 to 10 nM | –
2 | CC#CC(=O)NC1C=C(c2c(F)cc(C(N)=O)c3[nH]c(C)c(Cl)c23)CCC1 (racemic) [5B(rac), 4-(3-(but-2-ynamido)cyclohex-1-en-1-yl)-3-chloro-5-fluoro-2-methyl-1H-indole-7-carboxamide] | 1 to 10 nM | –
3 | CC#CC(=O)N[C@@H]1CCC[C@H](c2c(F)cc(C(N)=O)c3[nH]c(C)c(Cl)c23)C1 (relative stereo) [Compound 6-(cis), 4-((cis)-3-(but-2-ynamido)cyclohexyl)-3-chloro-5-fluoro-2-methyl-1H-indole-7-carboxamide] | 1 to 10 nM | < 8330 M⁻¹ s⁻¹
4 | CC#CC(=O)N[C@H]1CCC[C@H](c2c(F)cc(C(N)=O)c3[nH]c(C)c(Cl)c23)C1 (relative stereo) [Compound 6-(trans), 4-((trans)-3-(but-2-ynamido)cyclohexyl)-3-chloro-5-fluoro-2-methyl-1H-indole-7-carboxamide] | 1 to 10 nM | –
5 | CC#CC(=O)N(C)[C@H]1CCC=C(c2c(F)cc(C(N)=O)c3[nH]c(C)c(C)c23)C1 [4A(S), (S)-5-fluoro-2,3-dimethyl-4-(5-(N-methylbut-2-ynamido)cyclohex-1-en-1-yl)-1H-indole-7-carboxamide] | 1 to 10 nM | –
6 | CC#CC(=O)N(C)[C@@H]1C=C(c2c(F)cc(C(N)=O)c3[nH]c(C)c(C)c23)CCC1 [4B(S), (S)-5-fluoro-2,3-dimethyl-4-(3-(N-methylbut-2-ynamido)cyclohex-1-en-1-yl)-1H-indole-7-carboxamide] | 1 to 10 nM | –
7 | CC#CC(=O)N[C@H]1C=C(c2c(F)cc(C(N)=O)c3[nH]c(C)c(Cl)c23)CCC1 [5B(R), (R)-4-(3-(but-2-ynamido)cyclohex-1-en-1-yl)-3-chloro-5-fluoro-2-methyl-1H-indole-7-carboxamide] | 1 to 10 nM | –
8 | CC#CC(=O)N[C@@H]1CCC[C@@H](c2c(F)cc(C(N)=O)c3[nH]c(C)c(Cl)c23)C1 [6-(1R,3R), 4-((1R,3R)-3-(but-2-ynamido)cyclohexyl)-3-chloro-5-fluoro-2-methyl-1H-indole-7-carboxamide] | > 10 nM | –
9 | CC#CC(=O)N[C@H]1CCC[C@H](c2c(F)c(F)c(C(N)=O)c3[nH]c(C)c(Cl)c23)C1 [11-(1S,3S), 4-[(1S,3S)-3-(but-2-ynoylamino)cyclohexyl]-3-chloro-5,6-difluoro-2-methyl-1H-indole-7-carboxamide] | > 10 nM | –
10 | CC#CC(=O)N[C@H]1CC[C@H](c2c(F)cc(C(N)=O)c3[nH]c(C)c(C)c23)C1 [12-(1S,3S), 4-((1S,3S)-3-(but-2-ynamido)cyclopentyl)-5-fluoro-2,3-dimethyl-1H-indole-7-carboxamide] | > 10 nM | –
11 | CC#CC(=O)N[C@@H]1CC[C@H](c2c(F)cc(C(N)=O)c3[nH]c(C)c(C)c23)C1 [13-(1S,3R), 4-((1S,3R)-3-(but-2-ynamido)cyclopentyl)-5-fluoro-2,3-dimethyl-1H-indole-7-carboxamide] | > 10 nM | –
12 | CC#CC(=O)N[C@H]1CCC[C@H](c2c(F)c(F)c(C(N)=O)c3[nH]c(C)c(C#N)c23)C1 [Compound 7-(1S,3S), 4-((1S,3S)-3-(but-2-ynamido)cyclohexyl)-3-cyano-5,6-difluoro-2-methyl-1H-indole-7-carboxamide] | > 10 nM | –
13 | CC#CC(=O)N[C@@H]1CCC[C@@H](c2c(F)c(F)c(C(N)=O)c3[nH]c(C)c(F)c23)C1 [Compound 8-(1R,3R), 4-((1R,3R)-3-(but-2-ynamido)cyclohexyl)-3,5,6-trifluoro-2-methyl-1H-indole-7-carboxamide] | 1 to 10 nM | –
14 | CC#CC(=O)N[C@H]1CCC[C@@H](c2c(F)c(F)c(C(N)=O)c3[nH]c(C)c(F)c23)C1 [Compound 8-(1R,3S), 4-((1R,3S)-3-(but-2-ynamido)cyclohexyl)-3,5,6-trifluoro-2-methyl-1H-indole-7-carboxamide] | 1 to 10 nM | –
15 | CC#CC(=O)N[C@@H]1CCC[C@H](c2c(F)c(F)c(C(N)=O)c3[nH]c(C)c(F)c23)C1 [Compound 8-(1S,3R), 4-((1S,3R)-3-(but-2-ynamido)cyclohexyl)-3,5,6-trifluoro-2-methyl-1H-indole-7-carboxamide] | > 10 nM | –
16 | CC#CC(=O)N[C@H]1CCC[C@H](c2c(F)c(F)c(C(N)=O)c3[nH]c(C)c(F)c23)C1 [Compound 8-(1S,3S), 4-((1S,3S)-3-(but-2-ynamido)cyclohexyl)-3,5,6-trifluoro-2-methyl-1H-indole-7-carboxamide] | > 10 nM | –
17 | CC#CC(=O)N[C@@H]1CCC[C@@H](c2c(F)c(F)c(C(N)=O)c3[nH]c(C)c(C)c23)C1 [Compound 9-(1R,3R), 4-((1R,3R)-3-(but-2-ynamido)cyclohexyl)-5,6-difluoro-2,3-dimethyl-1H-indole-7-carboxamide] | > 10 nM | –
18 | CC#CC(=O)N[C@H]1CCC[C@@H](c2c(F)c(F)c(C(N)=O)c3[nH]c(C)c(C)c23)C1 [Compound 9-(1R,3S), 4-((1R,3S)-3-(but-2-ynamido)cyclohexyl)-5,6-difluoro-2,3-dimethyl-1H-indole-7-carboxamide] | > 10 nM | –
19 | CC#CC(=O)N[C@@H]1CCC[C@H](c2c(F)c(F)c(C(N)=O)c3[nH]c(C)c(C)c23)C1 [Compound 9-(1S,3R), 4-((1S,3R)-3-(but-2-ynamido)cyclohexyl)-5,6-difluoro-2,3-dimethyl-1H-indole-7-carboxamide] | 1 to 10 nM | –
20 | CC#CC(=O)N[C@H]1CCC[C@H](c2c(F)c(F)c(C(N)=O)c3[nH]c(C)c(C)c23)C1 [Compound 9-(1S,3S), 4-((1S,3S)-3-(but-2-ynamido)cyclohexyl)-5,6-difluoro-2,3-dimethyl-1H-indole-7-carboxamide] | 1 to 10 nM | –

— patent US12600698B2, “Kinase inhibitors” (Vidya Therapeutics, Inc., priority 2021, dated 2026)
